The numbers were not newly measured in patent publication US7186882B2, “Transgenic mouse over-expressing calreticulin (CRT) in vascular smooth muscle cells” (priority 2003, dated 2007), which cites them from elsewhere.

Where a SMILES comes first, the peptide text is derived from it. Bridges are numbered along the chain shown (N, C = ends).

For one data set, the system named is MMP-2/MMP-9. To be noted: MMP-2/MMP-9 inhibitor, values given as illustrative.
The next data set relates to CRT. Conditions: siRNA to nucleotides 1917–1937 of SEQ ID NO. 1; Troussard et al., 2003.
For data set [1], the system named is intimal hyperplasia after arterial injury. Conditions: adult rats, exogenously added CRT; Dai et al., 1997.
In the next data set the test system is endothelial cells. To be noted: added to the endothelial culture media; Pike et al., 1999.

As a reminder, the IC50 is the midpoint of a concentration-inhibition curve. As to `O=C(O)[C@@H](Cc1ccccc1)NS(=O)(=O)c1ccc(-c2ccccc2)cc1` [MMP-2/MMP-9 inhibitor I, (2R)-2-[(4-Biphenylylsulfonyl)amino]-3-phenylpropionic Acid], in the data set on MMP-2/MMP-9, the IC50 was 240 to 350 nM.
On to `CC(C)C[C@@H]1NC(=O)[C@H]([C@@H](C)O)NC(=O)[C@H](Cc2ccccc2)NC(=O)CNC(=O)[C@H](Cc2c[nH]c3ccccc23)NC(=O)[C@H](Cc2cnc[nH]2)NC(=O)[C@H]([C@@H](C)O)NC(=O)[C@H]([C@@H](C)O)NC(=O)[C@@H](N)CSSC[C@@H](C(=O)O)NC1=O` [MMP-2/MMP-9 inhibitor III] (H-CTTHWGFTLC-OH; disulfide 1-10), for which the IC50 with MMP-2/MMP-9 was 10000 nM.
Take `O=C(NO)[C@@H](Cc1ccccc1)NS(=O)(=O)c1ccc(-c2ccccc2)cc1` [MMP-2/MMP-9 inhibitor II]: in the data set on MMP-2/MMP-9, the IC50 was 17 to 30 nM.
In the case of “siRNA: small interference RNA to CRT mRNA, sense 5′-GCUGAUCGUGCGGCCGGACAA dTT 3′, anti-sense 5′-UUGUCCGGCCGCACGAUCAGC dTT 3′ (sense GCUGAUCGUGCGGCCGGACAATT; antisense UUGUCCGGCCGCACGAUCAGCTT; chemistry not fully specified)”, the “expression of CRT” value in the data set with CRT is on record as “significantly diminish the expression of CRT”.

B1: CRT: calreticulin, 46 kDa ER protein, exogenously added to vascular cells or vessel lumen (protein)
chain: MLLPVPLLLGLLGLAAAEPVVYFKEQFLDGDGWTERWIESKHKSDFGKFVLSSGKFYGDQEKDKGLQTSQDARFYALSARFEPFSNKGQPLVVQFTVKHEQNIDCGGGYVKLFPAGLDQKDMHGDSEYNIMFGPDICGPGTKKVHVIFNYKGKNVLINKDIRCKDDEFTHLYTLIVRPDNTYEVKIDNSQVESGSLEDDWDFLPPKKIKDPDASKPEDWDERAKIDDPTDSKPEDWDKPEHIPDPDAKKPEDWDEEMDGEWEPPVIQNPEYKGEWKPRQIDNPDYKGTWIHPEIDNPEYSPDANIYAYDSFAVLGLDLWQVKSGTIFDNFLITNDEAYAEEFGNETWGVTKTAEKQMKDKQDEEQRLKEEEEEKKRKEEEEAEEDEEDKDDKEDEDEDEEDKDEEEEEAAAGQAKDEL
modifications: CRT peptide sequence from CRT cDNA
notes: calreticulin, 46 kDa ER protein, exogenously added to vascular cells or vessel lumen
B1: the “intimal hyperplasia (restenosis) after arterial injury” value in data set [1] was “reducing intimal hyperplasia”. Moreover, in the data set with endothelial cells, the endothelial cell proliferation result is reported as “selectively inhibits endothelial cell proliferation”.
